The text below walks through data of patent US20080242649A1, “New Combination 665” (priority 2007, published 2008).

For experiment [1], the target named is T1, recombinant human adrenergic beta 1 receptors (Homo sapiens, UniProt P08588).
T1 construct: purchased Euroscreen
Description: Adrenergic β1 [125I]-Iodocyanopindolol binding. To be noted: inhibition of [125I]-Iodocyanopindolol binding; read-out: β1 bind pIC50 (converted). The procedure: Membranes containing recombinant human adrenergic beta 1 receptors were obtained from Euroscreen. These were diluted in Assay Buffer (50 mM HEPES, 1 mM EDTA, 120 mM NaCl, 0.1% gelatin, pH 7.4) to provide a final concentration of membranes that gave a clear window between maximum and minimum specific binding.
Assays were performed in U-bottomed 96-well polypropylene plates. 10 PL [1251]-Iodocyanopindolol (0.036 nM final concentration) and 10 μL of Compound A (10× final concentration) were added to each test well. For each assay plate 8 replicates were obtained for [^125]-Iodocyanopindolol binding in the presence of 10 μL vehicle (10% (v/v) DMSO in Assay Buffer; defining maximum binding) or 10 μL Propranolol (10 μM final concentration; defining non-specific binding (NSB)). Membranes were then added to achieve a final volume of 100 μL. […] Five washes with 250 μL wash buffer (50 mM HEPES, 1 mM EDTA, 120 mM NaCl, pH 7.4) were performed at 4° C. to remove unbound radioactivity. […] The plates were sealed (TopSeal A) and filter-bound radioactivity was measured with a scintillation counter (TopCount, Packard BioScience) using a 3-minute counting protocol.
Total specific binding (B0) was determined by subtracting the mean NSB from the mean maximum binding. […]

Experiment [2] concerns LPS-induced intra-alveolar neutrophilia. As to the kind of experiment: Intra-alveolar neutrophil migration after intratracheal LPS challenge in the CRL:CD rat. It counts as in vivo. On the procedure: Evaluation of Compound Activity on Intra-Alveolar Neutrophil Migration after Intratracheal Challenge with Lipopolysacharride (LPS) in the CRL:CD Rat
LPS challenge in CRL:CD rats causes an influx of neutrophils into the lungs. Under recoverable gaseous anaesthesia (5% isoflorane in oxygen), rats were dosed via the intratracheal route with vehicle (0.05M phosphate, 0.1% Tween 80, 0.6% saline, pH 6), or compound 30 min before challenge with an intratracheal dose of 10 μg/kg LPS.
The rats (250-400 g) were euthanized 4 hr after LPS challenge with 1 mL pentobarbitone sodium. A tracheotomy was performed and a cannula inserted. The airway was then lavaged using 3 mL Isoton at room temperature. The Isoton (BeckmanCoulter, High Wycombe, UK) was left in the airway for 10 seconds before being removed. The bronchio-alveolar lavage (BAL) fluid containing inflammatory cells was placed into a 15 mL centrifuge tube and kept on ice. This process was repeated three times. An aliquot of BAL fluid was removed and the inflammatory cells were counted on Sysmex (Sysmex UK, Milton Keynes). Neutrophils were expressed in millions/animal (mean ±s.e.mean).

The test system of experiment [3] is histamine-induced bronchoconstriction. As to the kind of experiment: Lung function in anaesthetized guinea-pigs, histamine challenge. The conditions noted are these: for inhibition of histamine-induced bronchoconstriction: histamine 5 μg/kg i.v.; for increase in bronchoconstriction: histamine 5 μg/kg, vehicle 1100±161%. The format is in vivo, Dunkin-Hartley guinea pig. The procedure: Evaluation of Lung Function in Anaesthetized Guinea-Pigs
Male Dunkin-Hartley guinea pigs (300-600 g) were weighed and dosed with vehicle (0.05M phosphate, 0.1% Tween 80, 0.6% saline, pH 6) or compound via the intratracheal route under recoverable gaseous anaesthesia (5% halothane in oxygen). Animals were dosed with compound or vehicle two hours prior to the administration of histamine or methacholine.
Guinea pigs were anaesthetized with pentobarbitone (1 mL/kg of 60 mg/mL solution i.p.) approximately 30 minutes prior to the first bronchoconstrictor administration. The trachea was cannulated and the animal ventilated using a constant volume respiratory pump (Harvard Rodent Ventilator model 683) at a rate of 60 breath/min and a tidal volume of 5 ml/kg. A jugular vein was cannulated for the administration of histamine, methacholine or maintenance anaesthetic (0.1 mL of pentobarbitone solution, 60 mg/mL, as required).
The animals were transferred to a Flexivent System (SCIREQ, Montreal, Canada) in order to measure airway resistance. The animals were ventilated (quasi-sinusoidal ventilation pattern) at 60 breaths/min at a tidal volume of 5 mL/kg. A positive end expiratory pressure of 2-3 cmH2O was applied. Respiratory resistance was measured using the Flexivent “snapshot” facility (1 second duration, 1 Hz frequency). Once stable baseline resistance value had been obtained the animals were given histamine or methacholine in ascending doses (0.5, 1, 2, 3 and 5 μg/kg, i.v.) at approximately 4-minute intervals via the jugular catheter. After each administration of bronchoconstrictor the peak resistance value was recorded. Guinea pigs were euthanized with approximately 1.0 mL pentobarbitone sodium (Euthatal) intravenously after the completion of the lung function measurements. Percentage bronchoprotection produced by a compound was calculated at each dose of brochoconstrictor as follows:
Where % change Rveh is the mean of the maximum percentage change in airway resistance in the vehicle treated group. The results reported were measured after 5 μg/kg histamine or methacholine and were expressed as percentage bronchoprotection (mean ±s.e.mean).

Structures can show the parent of a compound that is named as a salt.

T1 sequence (P08588 whole entry): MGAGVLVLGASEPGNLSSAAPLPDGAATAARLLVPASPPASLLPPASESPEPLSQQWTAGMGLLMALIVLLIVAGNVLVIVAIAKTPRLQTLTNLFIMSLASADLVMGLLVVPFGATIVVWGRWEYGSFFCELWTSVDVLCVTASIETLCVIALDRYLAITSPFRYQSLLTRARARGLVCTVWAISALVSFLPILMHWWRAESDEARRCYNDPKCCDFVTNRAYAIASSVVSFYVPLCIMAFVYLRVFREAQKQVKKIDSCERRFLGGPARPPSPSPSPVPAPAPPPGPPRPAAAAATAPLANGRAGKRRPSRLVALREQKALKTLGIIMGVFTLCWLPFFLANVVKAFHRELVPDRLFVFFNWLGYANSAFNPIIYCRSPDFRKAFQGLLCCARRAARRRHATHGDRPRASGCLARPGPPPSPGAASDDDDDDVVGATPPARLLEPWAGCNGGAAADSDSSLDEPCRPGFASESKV

For the molecule `CCN(CC)CCN(CCNCCc1ccc(O)c2[nH]c(=O)sc12)C(=O)CCOCCc1cccc2ccccc12` [Compound A, N-[2-(Diethylamino)ethyl]-N-(2-{[2-(4-hydroxy-2-oxo-2,3-dihydro-1,3-benzothiazol-7-yl)ethyl]amino}ethyl)-3-[2-(1-naphthyl)ethoxy]propanamide dihydrobromide], in experiment [1], the IC50 is greater than 10 µM. For the same molecule, the inhibition of neutrophilia worked out at 43% in experiment [2] (Compound W study, compound A 0.1 μg/kg intratracheal 30 min prior to LPS); 26% in experiment [2] (Compound X study, compound A 0.1 μg/kg intratracheal 30 min prior to LPS); 45% in experiment [2] (budesonide study, compound A 0.2 μg/kg intratracheal 30 min prior to LPS 10 μg/kg, BAL 4 hr). Moreover, the “neutrophils in BAL” value in experiment [2] (Compound W study, compound A 0.1 μg/kg, vehicle/LPS 11±1.8) is 5.0±0.70 million/animal; in experiment [2] (Compound X study, compound A 0.1 μg/kg, vehicle/LPS 12±1.7) it was 9.1±1.1 million/animal; in experiment [2] (budesonide study, compound A 0.2 μg/kg intratracheal, mean ±s.e.mean, vehicle/LPS 14±1.6), 7.8±0.71 million/animal. Besides, the “inhibition of histamine-induced bronchoconstriction” value was found to be 49% in experiment [3] (compound A 1 μg/kg intratracheal 2 h before) and 87% in experiment [3] (compound A 27 μg/kg intratracheal 2 h before). Also, the increase in bronchoconstriction in experiment [3] (compound A 1 μg/kg intratracheal) was found to be 544±60%; in experiment [3] (compound A 27 μg/kg intratracheal), 140±36%.
